Common to all, as to assay type: cell-based
One assay has as its target T1, glucocorticoid receptor (Homo sapiens, UniProt P04150).
T1 construct: A549 cells stably transfected with a reporter gene containing the NF-κB responsive elements from the ELAM gene promoter; endogenous in cells; host or cells: A549 cells stably transfected with the reporter gene only
T1 sequence (P04150 1-777): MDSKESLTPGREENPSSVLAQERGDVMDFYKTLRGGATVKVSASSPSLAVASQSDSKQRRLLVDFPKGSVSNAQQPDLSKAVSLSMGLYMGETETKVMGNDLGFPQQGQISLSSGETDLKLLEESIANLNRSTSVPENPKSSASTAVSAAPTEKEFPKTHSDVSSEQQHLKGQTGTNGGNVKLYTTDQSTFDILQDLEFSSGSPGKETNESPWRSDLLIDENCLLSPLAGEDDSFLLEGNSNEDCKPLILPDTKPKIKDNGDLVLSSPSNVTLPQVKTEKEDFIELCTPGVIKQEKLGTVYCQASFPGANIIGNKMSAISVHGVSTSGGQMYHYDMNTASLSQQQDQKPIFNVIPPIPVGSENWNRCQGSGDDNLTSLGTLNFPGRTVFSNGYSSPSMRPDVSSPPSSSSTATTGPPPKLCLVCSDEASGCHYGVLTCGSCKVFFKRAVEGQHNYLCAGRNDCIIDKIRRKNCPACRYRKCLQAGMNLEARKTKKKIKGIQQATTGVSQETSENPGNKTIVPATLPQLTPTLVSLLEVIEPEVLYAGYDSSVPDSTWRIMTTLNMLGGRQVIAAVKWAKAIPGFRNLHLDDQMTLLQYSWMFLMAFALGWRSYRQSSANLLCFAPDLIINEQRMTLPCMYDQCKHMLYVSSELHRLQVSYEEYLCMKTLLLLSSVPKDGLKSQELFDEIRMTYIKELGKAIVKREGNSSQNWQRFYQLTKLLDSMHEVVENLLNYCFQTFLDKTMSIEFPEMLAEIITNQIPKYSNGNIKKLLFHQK
The experiment in a line: Functional in vitro assay of glucocorticoid agonist activity (A549 cells, NF-κB/ELAM promoter sPAP reporter, TNF stimulated). To be noted: in vitro functional glucocorticoid agonist assays; relative to Example 1. The protocol: Pharmacological activity was assessed in a functional in vitro assay of glucocorticoid agonist activity which is generally predictive of anti-inflammatory or anti-allergic activity in vivo.
A549 cells stably transfected with a reporter gene containing the NF-κB responsive elements from the ELAM gene promoter coupled to sPAP (secreted alkaline phosphatase) were treated with test compounds at appropriate doses for 1 hour at 37° C. […] Dose response curves were constructed from which EC50 values were estimated.

The target in assay [1] is T2, glucocorticoid receptor (GR) (Homo sapiens, UniProt P04150). Description: Transactivation (GR): renilla luciferase reporter with glucocorticoid response elements in A549 cells. The following applies: GRE renilla luciferase reporter, 1 h compound, then 0.5 ng/ml TNFα, further 15 hours, read-out: Transactivation (GR) ED50. An excerpt: (§1) The glucocorticoid receptor (GR) can function in at least two distinct mechanisms, by upregulating gene expression through the direct binding of GR to specific sequences in gene promoters, and by downregulating gene expression that is being driven by other transcription factors (such as NFκB or AP-1) through their direct interaction with GR.
(§2) The first cell line contains the firefly luciferase reporter gene under the control of a synthetic promoter that specifically responds to activation of the transcription factor NFκB when stimulated with TNFα. The second cell line contains the renilla luciferase reporter gene under the control of a synthetic promotor that comprises 3 copies of the consensus glucocorticoid response element, and which responds to direct stimulation by glucocorticoids. Simultaneous measurement of transactivation and transrepression was conducted by mixing the two cell lines in a 1:1 ratio in 96 well plate (40,000 cells per well) and growing overnight at 37° C. Test compounds were dissolved in DMSO, and added to the cells at a final DMSO concentration of 0.7%. After incubation for 1 h 0.5 ng/ml TNFα (R&D Systems) was added and after a further 15 hours at 37° C., the levels of firefly and renilla luciferase were measured using the Packard Firelite kit following the manufacturers' directions. Dose response curves were constructed from which EC50 values were determined.
(A reporter such as luciferase makes a cellular process visible.)

Assay [2] deals with T2, glucocorticoid receptor (GR). The experiment in a line: Transrepression (NFκB): firefly luciferase NFκB reporter in A549 cells stimulated with TNFα. To be noted: 1 h compound, then 0.5 ng/ml TNFα, further 15 hours, read-out: Transrepression (NFκB) ED50.
Description: as §1, §2

In the case of `C[C@@H]1C[C@H]2[C@@H]3C[C@H](F)C4=CC(=O)C=C[C@]4(C)[C@@]3(F)[C@@H](O)C[C@]2(C)[C@@]1(OC(=O)c1ccco1)C(=O)O` [Metabolite (X)], the “fold less active than the parent compound” value at glucocorticoid receptor was greater than 1000 fold. In addition, the EC50 in assay [1] was greater than 250 nM; in assay [2], greater than 1000 nM.

The values are drawn from patent US6878698B2, “Anti-inflammatory androstane derivatives” (Glaxo Group Limited, priority 2001, dated 2005).
